The test system of one series is MCF7 cells. Kind of series: Anchorage Independence/Soft Agar Assay, MCF7. Also on record: PERCENTAGE SURVIVAL RELATIVE TO MS, MCF7, n = 2: tested at 2 µg. The following applies: soft agar; for PERCENTAGE SURVIVAL RELATIVE TO MS, MCF7, n = 1: experiment n = 1; for PERCENTAGE SURVIVAL RELATIVE TO MS, MCF7, n = 2: experiment n = 2. The series is classed as cell-based, human. The procedure, abridged: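 Cells were transfected for 4 h with 2 μg siRNA against target genes, then seeded at 5×10^4 cells/well in 0.05% agar/medium and grown 12/14 days at 37 °C, 5% CO2. Crystal violet-stained colonies were counted at 4× and morphology assessed; survival expressed relative to missense siRNA control.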

The test system of the next series is U251 cells. Kind of series: Anchorage Independence/Soft Agar Assay, U251. The series is classed as cell-based, human. The following applies: soft agar, experiment n = 1. As to the method: The Anchorage Independence/Soft Agar Assay allows assessment of the influence of modulation of gene expression on clonal tumouroid formation by observing and quantifying tumouroid morphology and colony number over an extended period of logarithmic growth thereby ascertaining any cell death is induced.
Cells are seeded into a 6-well plate and allowed to adhere overnight at 37° C. in a humidified atmosphere containing 5% CO2 in air. Cells are next transfected with siRNA Oligomers, at a concentration of 2 μg, against the genes of interest. Transfections continued for 4 hrs after which the transfection solution is removed and cells are refed with fresh medium and allowed incubate overnight. Transfected cells are next harvested for seeding into soft agar assay as described below. […] Colonies formed are subsequently stained with Crystal Violet, their morphology is assessed and colonies formed are enumerated at a 4× magnification.
The cytotoxic effect of each gene is determined by a reduction in colony number compared to our MS control, but any influence on the morphology of the colony is also noted.
Examples of genes with a cytotoxic effect on knockdown as detected by the soft agar assay are outlined in Table 14. […]

As to “siRNA MKNK: sense UACAUGGCCCCUGAGGUAGtt, antisense CUACCUCAGGGGCCAUGUAtt (sense UACAUGGCCCCUGAGGUAGTT; antisense CUACCUCAGGGGCCAUGUATT; chemistry not given here)”, in the series on MCF7 cells, the “PERCENTAGE SURVIVAL RELATIVE TO MS, MCF7, n = 1” value stood at 25.9% and the “PERCENTAGE SURVIVAL RELATIVE TO MS, MCF7, n = 2” value is 4%.

For “siRNA PSKH1: sense GAACCUGCACCGCUCCAUAtt, antisense UAUGGAGCGGUGCAGGUUCtt (sense GAACCUGCACCGCUCCAUATT; antisense UAUGGAGCGGUGCAGGUUCTT; chemistry not given here)”, in the series with MCF7 cells, the “PERCENTAGE SURVIVAL RELATIVE TO MS, MCF7, n = 1” value is 82.6% and the “PERCENTAGE SURVIVAL RELATIVE TO MS, MCF7, n = 2” value worked out at 11.9%.

With “siRNA Survivin: positive control siRNA, sense GAACUGGCCCUUCUUGGAGtt, antisense CUCCAAGAAGGGCCAGUUCtt (sense GAACUGGCCCUUCUUGGAGTT; antisense CUCCAAGAAGGGCCAGUUCTT; chemistry not given here) [reference compound]”, in the series on MCF7 cells, the “PERCENTAGE SURVIVAL RELATIVE TO MS, MCF7, n = 1” value worked out at 80.3% and the “PERCENTAGE SURVIVAL RELATIVE TO MS, MCF7, n = 2” value turned out to be 50.3%.

Take “siRNA MPSK1: sense GGGUUAUGCCCACAGAGACtt, antisense GUCUCUGUGGGCAUAACCCtt (sense GGGUUAUGCCCACAGAGACTT; antisense GUCUCUGUGGGCAUAACCCTT; chemistry not given here)”: the “PERCENTAGE SURVIVAL RELATIVE TO MS, U251, n = 1” value in the series on U251 cells is reported as 18%. Also, in the series with MCF7 cells, the “PERCENTAGE SURVIVAL RELATIVE TO MS, MCF7, n = 1” value is given as 35.8% and the “PERCENTAGE SURVIVAL RELATIVE TO MS, MCF7, n = 2” value is reported as 30.3%.

For the origin of these results see US20050019746A1, “Apoptosis-related kinase/GPCRs” (EiRx Therapeutics Limited, priority 2003, published 2005).
